Data taken from patent publication US20110268789A1, “USE OF PITUITARY ADENYLATE CYCLASE-ACTIVATING POLYPEPTIDE (PACAP) AND PACAP ANALOGS AS ADJUNCTIVE TREATMENTS WITH ANTICANCER AGENTS” (priority 2008, published 2011).
Square brackets hold non-standard residues; d marks the D form. Ends that are not written are not given here.

Columns and labels:
[1] = system: MCF-7 human breast cancer cells; experiment: Doxorubicin-induced apoptotic cell death of breast cancer cells; type: cell-based; conditions: MCF-7 cells
Protocol: The MCF-7 human breast cancer cells were cultured in Eagle's Minimum Essential Medium supplemented with 10% non-inactivated fetal bovine serum and 0.05 mM 2-mercaptoethanol. The effects of PACAP38 and N-acetyl[Ala^16,17,D-Lys^38]PACAP38 on apoptotic cell death were assessed by the quantitative determination of cytoplasmic histone-associated DNA-fragmentation (mono- and oligonucleosomes) after exposure to doxorubicin for 48 hours. Each value represents the mean plus/minus the standard deviation of three determinations. **p<0.01 compared to the doxorubicin-treated (control) cells.
At the highest dose tested (10^−6 M), both peptides reduced the apoptotic cell death of these breast cancer cells by more than 50%.

[2] = system: Jurkat human T-lymphocyte leukemia cells; experiment: Etoposide-induced apoptotic cell death of leukemia cells; type: cell-based; conditions: Jurkat cells
Protocol: The Jurkat human T-lymphocyte leukemia cells were cultured in RPMI 1640 medium supplemented with 10% non-inactivated fetal bovine serum. The effects of PACAP27 and PACAP38 on apoptotic cell death was assessed by the quantitative determination of cytoplasmic histone-associated DNA-fragmentation (mono- and oligonucleosomes) after exposure to etoposide for 48 hours. Each value represents the mean plus/minus the standard deviation of three determinations. **p<0.01 and *p<0.05 compared to the etoposide-treated (control) cells.

[3] = system: NCI-H838 human non-small cell lung cancer cells; conditions: nude mice; cited from earlier work
[4] = system: MCF-7 human breast cancer cells; conditions: nude mice, MCF-7 cells; cited from earlier work
[5] = system: PC-3 human prostate cancer cells; conditions: nude mice, PC-3 cells; cited from earlier work
HK-2 human kidney cells [6] = experiment: Cisplatin-induced apoptotic cell death of human renal proximal tubule epithelial cells (histone-associated DNA fragmentation); type: cell-based; conditions: HK-2 cells, comparable concentrations, FIG. 4
Protocol: (§1) The HK-2 human kidney cells were cultured in Keratinocyte-Serum Free Medium supplemented with recombinant epidermal growth factor and bovine pituitary extract. The dose-dependent inhibitory effect of PACAP38 on apoptotic cell death was assessed by the quantitative determination of cytoplasmic histone-associated DNA-fragmentation (mono- and oligonucleosomes) after exposure to cisplatin for 24 hours. Each value represents the mean plus/minus the standard error of four determinations in three replicate experiments. **p<0.01 compared to the cisplatin-treated (control) cells.
as §1, with “deviation” for “error”, “different” for “replicate”, “**p<0.01 and *p<0.05” for “**p<0.01”

[7] = system: light-chain immunoglobulin-secreting human myeloma cells; experiment: Doxorubicin-induced apoptotic cell death of myeloma cells; type: cell-based
Protocol: (§2) The light-chain immunoglobulin-secreting human myeloma cells were cultured in RPMI 1640 medium supplemented with 10% non-inactivated fetal bovine serum and 0.05 mM 2-mercaptoethanol. The effects of PACAP38, and [Ala^16,17,D-Lys^38]PACAP38 on apoptotic cell death was assessed by the quantitative determination of cytoplasmic histone-associated DNA-fragmentation (mono- and oligonucleosomes) after exposure to doxorubicin for 48 hours. Each value represents the mean plus/minus the standard deviation of three determinations. **p<0.01 and *p<0.05 compared to the doxorubicin-treated (control) cells.
At the lowest dose tested (10^−8 M), both peptides reduced the doxorubicin-induced apoptotic cell death of these malignant plasma cells.

[8] = system: light-chain immunoglobulin-secreting human myeloma cells; experiment: Carmustine-induced apoptotic cell death of myeloma cells; type: cell-based
Protocol: as §2, with “[Ala^22]PACAP38” for “[Ala^16,17,D-Lys^38]PACAP38”, “carmustine” for “doxorubicin”, “carmustine-treated” for “doxorubicin-treated”

Male C57BL/6 mice = experiment: Cisplatin-induced nephrotoxicity in mice; type: in vivo, mouse; conditions: cisplatin 20 mg/kg i.p., FIG. 10
Protocol: (§3) Male C57BL/6 mice were given a single intraperitoneal injection of 20 mg/kg of cisplatin. Twenty nanomoles of PACAP38 were given intraperitoneally 1 hour before the injection of cisplatin and additional doses were given at 24 and 48 hours after the initial dose. The control group of mice was injected intraperitoneally with the same volume of saline as for the injections of cisplatin and PACAP38 on the same schedule. The mice were euthanized 24 hours after the final injection of PACAP38. Each value represents the mean plus/minus the standard error of four determinations. ***p<0.001 and **p<0.01 compared to the group treated only with cisplatin.
as §3, with “PACAP38. TNF-α was extracted from one kidney of each mouse and quantified with an enzyme-linked immunosorbent assay.” for “PACAP38.”
Male C57BL/6 mice were given a single intraperitoneal injection of 20 mg/kg of cisplatin. Twenty nanomoles of PACAP38 were given intraperitoneally 1 hour before the injection of cisplatin and additional doses were given at 24 and 48 hours after the initial dose. The control group of mice were injected intraperitoneally with the same volume of saline as for the injections of cisplatin and PACAP38 on the same schedule. The mice were euthanized 24 hours after the final injection of PACAP38, and the kidneys were removed and fixed in 10% formalin. The fixed sections were stained with hematoxylin and eosin. The sections of the kidneys from control mice show intact renal tubular epithelial cells and well-preserved brush border membranes. The kidneys from mice treated with cisplatin had extensive tubular damage, tubular dilations, intratubular debris, and intratubular casts. […] Tubular damage was more pronounced in the outer cortex in the cisplatin treated mice. The photomicrographs on the left side were made at a lower magnification (×160) than the photomicrographs on the right side (×320). The results described in FIGS. 5, 6, 7, and 8 were from the same experiment.
as §3, with “six” for “four”
as §3, with “The cytoprotective effect of PACAP38 against cisplatin-induced nephrotoxicity was also seen in a common in vivo model. Male” for “Male”, “PACAP38.” for “PACAP38. Each value represents the mean plus/minus the standard error of four determinations. ***p<0.001 and **p<0.01 compared to the group treated only with cisplatin.”

L-132 human lung cells = experiment: Bleomycin-induced apoptotic cell death of human pulmonary epithelial cells; type: cell-based; conditions: L-132 cells, peptide added to the medium, FIG. 12
Protocol: The L-132 human lung cells were cultured in Eagle's Minimum Essential Medium supplemented with 10% fetal bovine serum. […] Each value represents the mean plus/minus the standard deviation of four determinations in three replicate experiments. **p<0.01 and *p<0.05 compared to the bleomycin-treated (control) cells.
At the highest dose tested (10^−6 M), all three peptides reduced the apoptotic cell death of these epithelial cells by more than 60%. […] Therefore, pre- and/or post-treatment of subjects undergoing bleomycin-based cancer chemotherapy with therapeutic doses of PACAP38 and/or PACAP analogs should result in a higher maximal tolerable dose of bleomycin, and an increased frequency of partial clinical responses and/or an increased number of complete remissions.

[9] = system: PC-12 rat pheochromocytoma cells; experiment: Cisplatin-induced apoptotic cell death of pheochromocytoma cells; type: cell-based; conditions: PC-12 cells
Protocol: The PC-12 rat pheochromocytoma cells were cultured in F-12K medium supplemented with 15% horse serum and 2.5% fetal bovine serum. The dose-dependent inhibitory effects of PACAP38 and the PACAP38 analogs on apoptotic cell death were assessed by the quantitative determination of cytoplasmic histone-associated DNA-fragmentation (mono- and oligonucleosomes) after exposure to cisplatin for 24 hours. Each value represents the mean plus/minus the standard error of four determinations. **p<0.01 and *p<0.05 compared to the cisplatin-treated (control) cells.

HK-2 human kidney cells [10] = experiment: Doxorubicin-induced apoptotic cell death of human renal proximal tubule epithelial cells; type: cell-based; conditions: HK-2 cells, peptide added to the medium, FIG. 11
Protocol: The HK-2 human kidney cells were cultured in Keratinocyte-Serum Free Medium supplemented with recombinant epidermal growth factor and bovine pituitary extract. […] Each value represents the mean plus/minus the standard deviation of four determinations in three replicate experiments. **p<0.01 and *p<0.05 compared to the doxorubicin-treated (control) cells.
At the highest dose tested (10^−6 M), all three peptides reduced the apoptotic cell death of these epithelial cells by more than 60%.

[11] = rat, in vivo, iv; cited from earlier work
[12] = normal human volunteers and a patient with multiple myeloma; cited from earlier work
[13] = system: rat hippocampal neuron/glia co-cultures; conditions: cited from earlier work

For N-acetyl[Ala^16,17,D-Lys^38]PACAP38, which “relative potency in reducing doxorubicin-induced apoptotic cell death” value [1] is on record?
Its value is “slightly more potent than PACAP38”.

And the “reduction in doxorubicin-induced apoptotic cell death” value ([1]; doxorubicin 48 hours, FIG. 14)?
The value was “dose-dependent reduction”.

What does the source list for “PACAP27 (HSDGIFTDSYSRYRKQMAVKKYLAAVL-NH2)”?
reduction in etoposide-induced apoptotic cell death ([2]; etoposide 48 hours, FIG. 15): small reduction; significance of the reduction of etoposide-induced apoptotic cell death ([2]; highest dose tested 10^−6 M): did not have a significant effect

For “PACAP(6-38) (FTDSYSRYRKQMAVKKYLAAVLGKRYKQRVKNK; ends and bridges not checked; UniProt P18509 137-169, looked up, fragment) [a PACAP/VIP receptor antagonist]”, which growth of xenografts [3] is on record?
The growth of xenografts was “inhibited the growth”.

What about the growth of xenografts [4] of the same substance?
Its growth of xenografts is “inhibited the growth”.

What about the growth of xenografts [5] of the same substance?
The growth of xenografts was “inhibited the growth”.

For [Aib^2]PACAP38, which “relative effectiveness as protectants against cisplatin-induced apoptotic cell death” value (HK-2 human kidney cells [6]) is on record?
The value was “similarly effective”.

What does the source list for “[Ala^16,Ala^17,D-Lys^38]PACAP38 (HSDGIFTDSYSRYRKAAAVKKYLAAVLGKRYKQRVKN[dK]; ends and bridges not checked) [[Ala^16,17,D-Lys^38]PACAP38]”?
effect on doxorubicin-induced apoptotic cell death (dose-response) ([7]; doxorubicin 48 hours, FIG. 16): biphasic dose-response effect; effect on doxorubicin-induced apoptotic cell death ([7]; highest dose tested (10^−6 M)): small, but not significant, enhancement; effect on doxorubicin-induced apoptotic cell death ([7]; lowest dose tested (10^−8 M)): reduced

Which results are given for “[Ala^22]PACAP38 (HSDGIFTDSYSRYRKQMAVKKALAAVLGKRYKQRVKNK; ends and bridges not checked)”?
effect on carmustine-induced apoptotic cell death ([8]; carmustine 48 hours, FIG. 17): enhancement; effect on carmustine-induced apoptotic cell death ([8]; highest dose tested (10^−6 M)): significantly enhanced

With [D-Ser^2,Lys^38-palmitoyl]PACAP38 as the substance, how does the “relative potency as cytoprotectants against cisplatin-induced impairment of kidney function (serum creatinine)” value (Male C57BL/6 mice) read?
The value was “less potent”.

For “[Lys^34]PACAP38 (HSDGIFTDSYSRYRKQMAVKKYLAAVLGKRYKQKVKNK; ends and bridges not checked)”, which “reduction in bleomycin-induced apoptotic cell death” value (L-132 human lung cells) is on record?
The value was “significant dose-dependent reduction”.

What about the “reduction in cisplatin-induced apoptotic cell death” value ([9]; cisplatin 24 hours, FIG. 13) of the same substance?
Its value is “dose-dependent reduction”.

What about the “reduction of cisplatin-induced apoptotic cell death” value ([9]; highest dose tested (10^−6 M)) of the same substance?
The value was “significantly reduced”.

And the “reduction in doxorubicin-induced apoptotic cell death” value (HK-2 human kidney cells [10])?
The value was “significant dose-dependent reduction”.

With [^125I]-PACAP38 as the substance, how does the “half-life in the bloodstream” value [11] read?
Its value is 5 to 6 min.

What does the source list for “pituitary adenylate cyclase-activating polypeptide [PACAP]”?
untoward effect reported [12]: transient flushing; peak of bimodal dose-response curve for prevention of gp120-induced neuronal death (lower peak) [13]: 10^−13 M; peak of bimodal dose-response curve for prevention of gp120-induced neuronal death (upper peak) [13]: 10^−10 M
